Measured values from patent US9125913B2, “Bcl-2-selective apoptosis-inducing agents for the treatment of cancer and immune diseases” (AbbVie Inc., priority 2008, dated 2015).

Test system: GST-Bcl-2
Assay: TR-FRET binding assay, Bcl-2
Conditions: TR-FRET Ki values
How it was run: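 Ki values come from Wang's competitive-binding equation applied to TR-FRET signal (excitation 340/35 nm; emission 520/525 nm F-Bak peptide, 495/510 nm Tb antibody). Protein, probe and antibody incubated with compound 3 h at room temperature; dilution series began at 50 μM as 2× stock in 10% DMSO.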

| SMILES | Binding selectivity ratio (Bcl-XL Ki/Bcl-2 Ki) |
| --- | --- |
| C[C@@H](c1ccccc1-c1ccc(Cl)cc1)N1CCN(c2ccc(C(=O)NS(=O)(=O)c3ccc(NCC4CCOCC4)c([N+](=O)[O-])c3)c(Oc3cccc4[nH]ccc34)c2)CC1 [EXAMPLE 256, 4-{4-[(1S)-1-(4′-chloro-1,1′-biphenyl-2-yl)ethyl]piperazin-1-yl}-2-(1H-indol-4-yloxy)-N-({3-nitro-4-[(tetrahydro-2H-pyran-4-ylmethyl)amino]phenyl}sulfonyl)benzamide] | >5519.8 |
| CC1(C)CCC(CN2CCN(c3ccc(C(=O)NS(=O)(=O)c4cnc(OCCN5CCOCC5)c(C#N)c4)c(Oc4ccc5[nH]ccc5c4)c3)CC2)=C(c2ccc(Cl)cc2)C1 [EXAMPLE 388, 4-(4-{[2-(4-chlorophenyl)-4,4-dimethylcyclohex-1-en-1-yl]methyl}piperazin-1-yl)-N-{[5-cyano-6-(2-morpholin-4-ylethoxy)pyridin-3-yl]sulfonyl}-2-(1H-indol-5-yloxy)benzamide] | 185.1 |
| O=C(NS(=O)(=O)c1ccc(NCC2CCOCC2)c(S(=O)(=O)C(F)(F)F)c1)c1ccc(N2CCN(Cc3ccccc3-c3ccc(Cl)cc3)CC2)cc1Oc1ccccc1 [Example 163, 4-{4-[(4′-chloro-1,1′-biphenyl-2-yl)methyl]piperazin-1-yl}-2-phenoxy-N-({4-[(tetrahydro-2H-pyran-4-ylmethyl)amino]-3-[(trifluoromethyl)sulfonyl]phenyl}sulfonyl)benzamide] | >117.5 |
| CC1(C)CCC(CN2CCN(c3ccc(C(=O)NS(=O)(=O)c4ccc(NCCC5CCOCC5)c([N+](=O)[O-])c4)c(Oc4ccc5[nH]ccc5c4)c3)CC2)=C(c2ccc(Cl)cc2)C1 [EXAMPLE 291, 4-(4-{[2-(4-chlorophenyl)-4,4-dimethylcyclohex-1-en-1-yl]methyl}piperazin-1-yl)-2-(1H-indol-5-yloxy)-N-({3-nitro-4-[(2-tetrahydro-2H-pyran-4-ylethyl)amino]phenyl}sulfonyl)benzamide] | >1179.1 |
| CO[C@H]1CC[C@H](CNc2ccc(S(=O)(=O)NC(=O)c3ccc(N4CCN(CC5=C(c6ccc(Cl)cc6)CC(C)(C)CC5)CC4)cc3Oc3cccc4[nH]cnc34)cc2[N+](=O)[O-])CC1 [EXAMPLE 440, Trans-2-(1H-benzimidazol-4-yloxy)-4-(4-{[2-(4-chlorophenyl)-4,4-dimethylcyclohex-1-en-1-yl]methyl}piperazin-1-yl)-N-[(4-{[(4-methoxycyclohexyl)methyl]amino}-3-nitrophenyl)sulfonyl]benzamide] | 4549.1 |
| CN(C)CCCNc1ccc(S(=O)(=O)NC(=O)c2ccc(N3CCN(Cc4ccccc4-c4ccc(Cl)cc4)CC3)cc2Oc2ccc3[nH]ccc3c2)cc1S(=O)(=O)C(F)(F)F [Example 64, 4-{4-[(4′-chloro-1,1′-biphenyl-2-yl)methyl]piperazin-1-yl}-N-({4-{[3-(dimethylamino)propyl]amino}-3-[(trifluoromethyl)sulfonyl]phenyl}sulfonyl)-2-(1H-indol-5-yloxy)benzamide] | 77.1 |
| CC1(C)CCC(CN2CCN(c3ccc(C(=O)NS(=O)(=O)c4ccc(OCC5CCOCC5)c([N+](=O)[O-])c4)c(Oc4cccc5[nH]ccc45)c3)CC2)=C(c2ccc(Cl)cc2)C1 [EXAMPLE 289, 4-(4-{[2-(4-chlorophenyl)-4,4-dimethylcyclohex-1-en-1-yl]methyl}piperazin-1-yl)-2-(1H-indol-4-yloxy)-N-{[3-nitro-4-(tetrahydro-2H-pyran-4-ylmethoxy)phenyl]sulfonyl}benzamide] | >5917.7 |
| CC1(C)CCC(CN2CCN(c3ccc(C(=O)NS(=O)(=O)c4ccc(NCC5(N6CCOCC6)CCCCC5)c([N+](=O)[O-])c4)c(Oc4ccc5[nH]ccc5c4)c3)CC2)=C(c2ccc(Cl)cc2)C1 [EXAMPLE 229, 4-(4-{[2-(4-chlorophenyl)-4,4-dimethylcyclohex-1-en-1-yl]methyl}piperazin-1-yl)-2-(1H-indol-5-yloxy)-N-[(4-{[(1-morpholin-4-ylcyclohexyl)methyl]amino}-3-nitrophenyl)sulfonyl]benzamide] | >13.4 |
| CN(C)CC#Cc1ccc(-c2ccc(Cl)cc2)c(CN2CCN(c3ccc(C(=O)NS(=O)(=O)c4ccc(NCC5CCOCC5)c([N+](=O)[O-])c4)c(Oc4cccc5[nH]ccc45)c3)CC2)c1 [EXAMPLE 209, 4-[4-({4′-chloro-4-[3-(dimethylamino)prop-1-ynyl]-1,1′-biphenyl-2-yl}methyl)piperazin-1-yl]-2-(1H-indol-4-yloxy)-N-({3-nitro-4-[(tetrahydro-2H-pyran-4-ylmethyl)amino]phenyl}sulfonyl)benzamide] | >2476.0 |
| CC1(C)CCC(CN2CCN(c3ccc(C(=O)NS(=O)(=O)c4cnc(OCC5(F)CCN(C(CF)CF)CC5)c(C(F)(F)F)c4)c(Oc4cccc5[nH]ncc45)c3)CC2)=C(c2ccc(Cl)cc2)C1 [EXAMPLE 459, 4-(4-{[2-(4-chlorophenyl)-4,4-dimethylcyclohex-1-en-1-yl]methyl}piperazin-1-yl)-N-{[6-({4-fluoro-1-[2-fluoro-1-(fluoromethyl)ethyl]piperidin-4-yl}methoxy)-5-(trifluoromethyl)pyridin-3-yl]sulfonyl}-2-(1H-indazol-4-yloxy)benzamide] | 541.58 |
| O=C(NS(=O)(=O)c1ccc(NCC2CCOCC2)c(S(=O)(=O)C(F)(F)F)c1)c1ccc(N2CCN(Cc3cc(OCCN4CCOCC4)ccc3-c3ccc(Cl)cc3)CC2)cc1Oc1ccccc1 [Example 117, 4-(4-{[4′-chloro-4-(2-morpholin-4-ylethoxy)-1,1′-biphenyl-2-yl]methyl}piperazin-1-yl)-2-phenoxy-N-({4-[(tetrahydro-2H-pyran-4-ylmethyl)amino]-3-[(trifluoromethyl)sulfonyl]phenyl}sulfonyl)benzamide] | >287.1 |
| COCCN1CCC(Nc2ccc(S(=O)(=O)NC(=O)c3ccc(N4CCN(CC5=C(c6ccc(Cl)cc6)CC(C)(C)CC5)CC4)cc3Oc3cccc4[nH]ccc34)cc2[N+](=O)[O-])CC1 [EXAMPLE 194, 4-(4-{[2-(4-chlorophenyl)-4,4-dimethylcyclohex-1-en-1-yl]methyl}piperazin-1-yl)-2-(1H-indol-4-yloxy)-N-[(4-{[1-(2-methoxyethyl)piperidin-4-yl]amino}-3-nitrophenyl)sulfonyl]benzamide] | 212.4 |
| COCCNC(=O)c1ccc(S(=O)(=O)NC(=O)c2ccc(N3CCN(CC4=C(c5ccc(Cl)cc5)CC(C)(C)CC4)CC3)cc2Oc2ccc3[nH]ccc3c2)cc1 [EXAMPLE 332, 4-(4-{[2-(4-chlorophenyl)-4,4-dimethylcyclohex-1-en-1-yl]methyl}piperazin-1-yl)-2-(1H-indol-5-yloxy)-N-[(4-{[(2-methoxyethyl)amino]carbonyl}phenyl)sulfonyl]benzamide] | >52.5 |
| CC1(C)CCC(CN2CCN(c3ccc(C(=O)NS(=O)(=O)c4ccc(NCC5CCOCC5)c(C#N)c4)c(Oc4ccc5[nH]ccc5c4)c3)CC2)=C(c2ccc(Cl)cc2)C1 [EXAMPLE 367, 4-(4-{[2-(4-chlorophenyl)-4,4-dimethylcyclohex-1-en-1-yl]methyl}piperazin-1-yl)-N-({3-cyano-4-[(tetrahydro-2H-pyran-4-ylmethyl)amino]phenyl}sulfonyl)-2-(1H-indol-5-yloxy)benzamide] | >143.2 |
| C[C@H](Nc1ccc(S(=O)(=O)NC(=O)c2ccc(N3CCN(CC4=C(c5ccc(Cl)cc5)CC(C)(C)CC4)CC3)cc2Oc2ccc3[nH]ccc3c2)cc1[N+](=O)[O-])c1ccccc1 [EXAMPLE 378, 4-(4-{[2-(4-chlorophenyl)-4,4-dimethylcyclohex-1-en-1-yl]methyl}piperazin-1-yl)-2-(1H-indol-5-yloxy)-N-[(3-nitro-4-{[(1S)-1-phenylethyl]amino}phenyl)sulfonyl]benzamide] | >10.5 |
| CC1(C)CCC(CN2CCN(c3ccc(C(=O)NS(=O)(=O)c4ccc(NC5CCC(F)(F)CC5)c([N+](=O)[O-])c4)c(Oc4ccc5[nH]ccc5c4)c3)CC2)=C(c2ccc(Cl)cc2)C1 [EXAMPLE 305, 4-(4-{[2-(4-chlorophenyl)-4,4-dimethylcyclohex-1-en-1-yl]methyl}piperazin-1-yl)-N-({4-[(4,4-difluorocyclohexyl)amino]-3-nitrophenyl}sulfonyl)-2-(1H-indol-5-yloxy)benzamide] | >179.2 |
| Cn1ncc(-c2ccc(Cl)cc2)c1CN1CCN(c2ccc(C(=O)NS(=O)(=O)c3ccc(NCC4CCOCC4)c([N+](=O)[O-])c3)c(Oc3ccc4[nH]ccc4c3)c2)CC1 [EXAMPLE 285, 4-(4-{[4-(4-chlorophenyl)-1-methyl-1H-pyrazol-5-yl]methyl}piperazin-1-yl)-2-(1H-indol-5-yloxy)-N-({3-nitro-4-[(tetrahydro-2H-pyran-4-ylmethyl)amino]phenyl}sulfonyl)benzamide] | >94.4 |
| CC1(C)CCC(CN2CCN(c3ccc(C(=O)NS(=O)(=O)c4ccc(OCC5CCOCC5)c([N+](=O)[O-])c4)c(Oc4ccc5[nH]ccc5c4)c3)CC2)=C(c2ccc(Cl)cc2)C1 [EXAMPLE 279, 4-(4-{[2-(4-chlorophenyl)-4,4-dimethylcyclohex-1-en-1-yl]methyl}piperazin-1-yl)-2-(1H-indol-5-yloxy)-N-{[3-nitro-4-(tetrahydro-2H-pyran-4-ylmethoxy)phenyl]sulfonyl}benzamide] | >6923.2 |
| CC(c1ccccc1-c1ccc(Cl)cc1)N1CCN(c2ccc(C(=O)NS(=O)(=O)c3ccc(NCCCN4CCOCC4)c([N+](=O)[O-])c3)c(Oc3cccc4[nH]ccc34)c2)CC1 (stereo not shown) [EXAMPLE 247, 4-{4-[1-(4′-chloro-1,1′-biphenyl-2-yl)ethyl]piperazin-1-yl}-2-(1H-indol-4-yloxy)-N-({4-[(3-morpholin-4-ylpropyl)amino]-3-nitrophenyl}sulfonyl)benzamide] | 145.3 |
